Assay results published in patent US20230158177A1, “HYPOXIA-TARGETING CONTRAST AGENT AND METHODS OF USE THEREOF” (Arizona Board of Regents on behalf of Arizona State …, priority 2021, published 2023).
“And” between values parts separate entries of the source, which are not always exact repeats. Equal entries are not always repeated.

How the values were obtained:
3T3 fibroblast cells = experiment: In vitro hypoxia-targeting study: T1 and T2 MRI of cell pellets; assay type: cell-based; conditions: for Relaxation time T1 of exposed cell pellets / Relaxation time T2 of exposed cell pellets: 7 T; for contrast agent concentration in cell pellet: from the relaxivity equation for transverse relaxation rate
Experimental: The in vitro study for hypoxia-targeting efficiency of FOBNI was assessed in a hypoxia chamber glove box capable of adjusting oxygen concentration, temperature and CO2 and equipped with a small centrifuge unit. The 3T3 fibroblast cells were grown in a T-150 flask once they reached the confluency of 80% divided equally to five T-75 flasks to ensure the flasks were identical before being exposed to contrast agents and different conditions. The cells were supplied with Dulbecco's Modified Eagle Medium (DMEM), fetal bovine serum (10%), and penicillin/streptomycin (1%). Once the five flasks reached the confluency of 75-80% the growth media were replaced with the following mediums.
Two flasks were supplied with fresh culture media supplemented with DFOB, two with fresh media and FOBNI and one with just fresh media as control. The control and one FOB and one FOBNI labeled flasks were placed in a regular cell incubator at 21% O2, 5% CO2 and 37° C. and the remaining two flasks were transferred to the hypoxia chamber at 1% O2, 5% CO2 and 37° C. All the samples were kept at defined conditions for 4 h before removing the media. The cells were washed three times with phosphate buffered saline (PBS) at the end of four hour incubation and were detached by being exposed to trypsin for 5 min. The collected cell mixtures in Eppendorf Tube were centrifuged at 1000 rpm for 5 min and the medium was removed. Afterwards, the cell pellets were suspended in PBS and again centrifuged three times to ensure the removal of unbound or free DFOB or FOBNI. Finally, to keep the cell pellets intact the tubes were filled with low temperature liquid agar and placed in the fridge to solidify.
MR Imaging—The samples were imaged using a rat brain surface coil at 7 T. The voxel wise T1 and T2 maps of the samples were calculated using MATLAB based software and the images from Variable Repetition Time Fast Spin Echo (VTR) Sequence and multi-echo spin echo sequence, respectively. The VTR sequence was performed with TE=8 ms and thirteen TR values ranging between (205-5000 ms). The images in multi-echo sequence were acquired with TE ranging between 8-200 ms and TR=5000 ms. The field of view was 2.56 cm×2.56 cm and the matrix size of 64×64 for all the experiments. The ROI analysis to calculate the T1 and T2 values for cell pellets were performed in MATLAB.
Statistics—All results are reported as means±standard deviations (SD). For statistical comparisons unpaired t-test was employed and confidence intervals α=0.05, 95% was used between specific means.

NIH-3T3 fibroblast cells = experiment: Cytotoxicity: cell viability assay using Alamar blue; assay type: cell-based; conditions: for cell viability (Alamar blue): hypoxic and normoxic conditions
Experimental: To study the cytotoxicity of DFOB, NIH-3T3 fibroblast cells were used. The cells were exposed to different concentrations of DFOB for 4, 8, and 24 h under either hypoxic or normoxic conditions. Afterwards, the cells were washed with PBS and exposed to 10% Alamar blue in media for 4 h in their respective conditions. To assess the viability of the cells 100 µl of the exposed Alamar blue was collected in a 96-well plate using the spectrophotometer the absorbance was measured at 570 nm and 600 nm excitations and the viability of the cells was calculated.
Cytotoxicity assay for FOBNI was a viability test using Alamar blue. The results are summarized in FIG. 5 for normoxic conditions and FIG. 6 for hypoxic conditions. […] The increased viability, which is a translation of reduced Alamar blue in control samples of 8 h and 24 h can be attributed to the increased number of the cells in the control wells. After seeding the cells the cell number in the control wells could increase and that can influence the amount of reduced compound in absorbance test.

[1] = Relaxometry: relaxivity in a water phantom at 7T; assay type: physicochemical; conditions: for longitudinal relaxivity r1 / transverse relaxivity r2: in water; for longitudinal relaxivity r1: slope of linear fit of R1 vs [C]; for transverse relaxivity r2: slope of linear fit of R2 vs [C]
Experimental: The basic paramagnetic properties i.e., relaxivity of chelated DFOB (FOB) and FOBNI was measured at 7T using a preclinical Bruker MRI scanner. The relaxivity of the two molecules were studied using a home-made 3D printed phantom capable of controlling temperature. The phantoms contained nine different concentrations of each contrast agents in water from 0-4 mM for FOB and 0-10 mM for FOBNI. The imaging parameters for this study were as matrix size 64×64, the field of view 2.56 cm×2.56 cm and TR=205-5000 ms, […] for the T1 map and TR=5000 ms, TE=8-200 ms for the T2 map. The MR images were later analyzed in a homemade MATLAB code to calculate the T1 and T2 values for each pixel. Using the T1 and T2 values for each concentration and Ri=[C]ri+Ri^0 equation the relaxivity values were calculated by a linear fit on Ri and [C]. Where Ri (i=1 or 2) is the relaxation rate of the tissue, [C] is the concentration of the contrast agent, ri is the relaxivity of the contrast agent and the Ri^0 is the intrinsic relaxation rate of the water. FIG. 7A and FIG. 7B show the T1 and T2 maps for the phantom and a concentration map indicating the concentrations of FOB and FOBNI in each respective well.
FIG. 8 represents the result of the linear fit for R1 and R2 for the two contrast agents. […] Using the linear fit function, the following equations are acquired for relaxation rate vs concentration, R1=(2.06±0.06)[C]+(0.49±0.04) (in red) and R2=(2.75±0.06)[C]+(3.75±0.08) (in gray) for FOB and R1=(0.51±0.1)[C]+(0.44±0.03) (in red) and R2=(4.51±0.14)[C]+(3.87±0.19) (in gray) for FOBNI.

[2] = cited from earlier work
[3] = mouse; cited from earlier work
[4] = hypoxic (H), 1% O2, 4 h exposure
[5] = normoxic (N), 21% O2, 4 h exposure

Molecule	Relaxation time T1 of exposed cell pellets (3T3 fibroblast cells; [4]) [ms]	Relaxation time T2 of exposed cell pellets (3T3 fibroblast cells; [4]) [ms]	increase in pellet concentration, FOBNI vs FOB (3T3 fibroblast cells; hypoxic condition) [fold]	contrast agent concentration in cell pellet (3T3 fibroblast cells; hypoxic) [mM]	Relaxation time T1 of exposed cell pellets (3T3 fibroblast cells; [5]) [ms]	Relaxation time T2 of exposed cell pellets (3T3 fibroblast cells; [5])	contrast agent concentration in cell pellet (3T3 fibroblast cells; normoxic) [mM]	cellular uptake after addition of nitroimidazole moiety (3T3 fibroblast cells; vs FOB, seen in T2 values under normoxic conditions)	cell viability (Alamar blue) (NIH-3T3 fibroblast cells; 100-400 μM, up to 24 h exposure, control of the 4 h exposure used, n=3)	cell viability (Alamar blue) (NIH-3T3 fibroblast cells; after 8 h and 24 h of exposure, control of each time point used)	cytocompatibility (cell viability assay) (NIH-3T3 fibroblast cells; up to 8 h of direct exposure to the cells)	decrease in r1 value compared to FOB [1]	longitudinal relaxivity r1 [1]	transverse relaxivity r2 [1]	cell permeability [2]	circulation half-time [3]
Feroxamine B conjugate of 2-nitroimidazole [FOBNI]	1909 ± 162	32.4 ± 3.4	1.73	5.98	1793 ± 165	59.3 ± 9.3 ms	2.88	increased the cellular uptake	no significant reduction	significant drop in cell viability	cytocompatibility	about 75%	0.51 L/s/mmol and 0.51 ± 0.1 L/s/mmol	4.51±0.14		
CC(=O)N(O)CCCCCNC(=O)CCC(=O)N(O)CCCCCNC(=O)CCC(=O)N(O)CCCCCN [DFOB, Deferoxamine B]															very low cell permeability	about 5 min
CC(=O)N([O-])CCCCCNC(=O)CCC(=O)N([O-])CCCCCNC(=O)CCC(=O)N([O-])CCCCCN.[Fe+3] [FOB, Feroxamine B, reference compound]	2002 ± 143	75.5 ± 15.0		3.45	2280 ± 222	89.9 ± 11.21 ms and 89.9 ± 11.2 ms	2.67						2.06 ± 0.06 L/s/mmol	2.75±0.06		
